Our source for the pest or weed control and plant injury values is US10375956B2, “Herbicidally active 2-(substituted-phenyl)-cyclopentane-1,3-dione compounds and derivatives thereof” (Syngenta Limited, priority 2013, dated 2019).

Holding throughout (type): in vivo
For experiment [1], the system named is Echinochloa crus-galli (ECHCG). Description: Test 1 glasshouse assay, pre-emergence herbicidal activity. The note with it: 312 h, visual evaluation after 13 days, read-out: Percentage phytotoxicity ECHCG. The method, then:
(§1) Seeds of a variety of test species are sown in standard soil in pots. After cultivation for one day (pre-emergence) or after 8 days cultivation (post-emergence) under controlled conditions in a glasshouse (at 24/16° C., day/night; 14 hours light; 65% humidity), the plants are sprayed with an aqueous spray solution derived from the formulation of the “technical” (i.e. unformulated) active ingredient in acetone/water (50:50) solution containing 0.5% Tween 20 (polyoxyethylene sorbitan monolaurate, CAS Registry Number 9005-64-5). The test plants are then grown on under controlled conditions in a glasshouse (at 24/16° C., day/night; 14 hours light; 65% humidity) and watered twice daily. After 13 days for pre- or post-emergence, the test is evaluated visually, and an assessed percentage phytotoxicity score is given for each herbicidal application on each plant species (where 100%=total damage to plant; 0%=no damage to plant).
(§2) Test plants include the following: Abutilon theophrasti (ABUTH), Amaranthus retroflexus (AMARE): these are dicotyledonous (broadleaved) weeds. Setaria faberi (SETFA), Alopecurus myosuroides (ALOMY), Echinochloa crus-galli (ECHCG): these are grassy monocotyledonous weeds. Also: Zea mays (ZEAMX, corn/maize), which can be a grassy weed (“volunteer” corn) in some circumstances.

For experiment [2], the system named is Abutilon theophrasti (ABUTH). Described as above. The note with it: 312 h, visual evaluation after 13 days, read-out: Percentage phytotoxicity ABUTH. The method, then:
as §1, §2

Experiment [3] concerns Alopecurus myosuroides (ALOMY). Described as above. To be noted: 312 h, visual evaluation after 13 days, read-out: Percentage phytotoxicity ALOMY. The method, then:
as §1, §2

Experiment [4] deals with Amaranthus retroflexus (AMARE). Described as above. To be noted: 312 h, visual evaluation after 13 days, read-out: Percentage phytotoxicity AMARE. The method, then: as §1, §2
The test system of experiment [5] is Setaria faberi (SETFA). The description is as above. The note with it: 312 h, visual evaluation after 13 days, read-out: Percentage phytotoxicity SETFA. The method, then: as §1, §2
Experiment [6] deals with Zea mays (ZEAMX, corn/maize). The experiment is described as above. To be noted: 312 h, visual evaluation after 13 days, read-out: Percentage phytotoxicity ZEAMX. The method, then:
as §1, §2

A further experiment has as its system Lolium perenne (LOLPE). The experiment is described as follows: Test 1 glasshouse assay, post-emergence herbicidal activity. The note with it: 312 h, post-emergence (Example 1B Table 2), after 13 days, read-out: Percentage phytotoxicity LOLPE. The method, then: as §1
(§3) Lolium perenne (LOLPE), Alopecurus myosuroides (ALOMY), Echinochloa crus-galli (ECHCG), and Avena fatua (AVEFA); these are all grassy monocotyledonous weeds. Cool climate crop plant: Triticum aestivum (TRZAW, winter wheat).

The test system of the next experiment is Avena fatua (AVEFA). Described as above. The note with it: 312 h, post-emergence (Example 1B Table 2), after 13 days, read-out: Percentage phytotoxicity AVEFA. The method, then:
as §1, §3

Experiment [7] deals with Triticum aestivum (TRZAW, winter wheat). Described as above. The note with it: 312 h, post-emergence (Example 1B Table 2), after 13 days, crop plant, read-out: Percentage phytotoxicity TRZAW. The method, then:
as §1, §3

Experiment [8] concerns Echinochloa crus-galli (ECHCG). The experiment is described as above. To be noted: 312 h, after 13 days, read-out: Percentage phytotoxicity ECHCG. The method, then:
as §1
(§4) Test plants include the following: Abutilon theophrasti (ABUTH) and Amaranthus retroflexus (AMARE); these are all dicotyledonous (broadleaved) weeds. Setaria faberi (SETFA), Alopecurus myosuroides (ALOMY), and Echinochloa crus-galli (ECHCG); these are all grassy monocotyledonous weeds. Also: Zea mays (ZEAMX, corn/maize), which can be a grassy weed (“volunteer” corn) in some circumstances.
as §3

Experiment [9] concerns Alopecurus myosuroides (ALOMY). Described as above. The note with it: 312 h, after 13 days, read-out: Percentage phytotoxicity ALOMY. The method, then: as §1, §4, §3
In experiment [10] the test system is Abutilon theophrasti (ABUTH). Described as above. To be noted: 312 h, post-emergence (Example 1B Table 1), after 13 days, read-out: Percentage phytotoxicity ABUTH. The method, then:
as §1, §4

Experiment [11] relates to Amaranthus retroflexus (AMARE). The experiment is described as above. The note with it: 312 h, post-emergence (Example 1B Table 1), after 13 days, read-out: Percentage phytotoxicity AMARE. The method, then:
as §1, §4

Experiment [12] has as its system Setaria faberi (SETFA). The description is as above. The note with it: 312 h, post-emergence (Example 1B Table 1), after 13 days, read-out: Percentage phytotoxicity SETFA. The method, then:
as §1, §4

Experiment [13] deals with Zea mays (ZEAMX, corn/maize). The experiment is described as above. The note with it: 312 h, post-emergence (Example 1B Table 1), after 13 days, read-out: Percentage phytotoxicity ZEAMX. The method, then: as §1, §4
Setting [14] is: post-emergence (Example 1B Table 1), 31.25 g/ha.
The mark [15] stands for this setting: post-emergence (Example 1B Table 1).
[16] abbreviates: post-emergence (Example 1B Table 2), 62.5 g/ha.
The mark [17] stands for this setting: post-emergence (Example 1B Table 2).
Where [18] appears, read: post-emergence (Example 1B Table 1), 30 g/ha.

SMILES strings stand for the structures.

For `C#CCC1CC(=O)C(c2c(C)cc(-c3ncc(Cl)cn3)cc2C)C1=O` (stereo not shown) [Compound A5, 2-[4-(5-chloropyrimidin-2-yl)-2,6-dimethylphenyl]-4-prop-2-ynylcyclopentane-1,3-dione], the pest or weed control at 250 g/ha in experiment [1] was determined as 100%; in experiment [2], 70%; in experiment [3] it was 100%; in experiment [4] it was 100%; in the experiment with Setaria faberi (SETFA) [5], 100%; in [6], 100%. Moreover, the pest or weed control at 250 g/ha (with Lolium perenne (LOLPE) (250 g/ha); in the experiment on Avena fatua (AVEFA) (250 g/ha); in [8] (setting [15]); in experiment [8] (setting [17]); in experiment [9] (setting [15]); in experiment [9] (setting [17])) was 100% in each case. Also, the pest or weed control at 250 g/ha in experiment [10] turned out to be 90%; in experiment [11] it was 90%; in the experiment on Setaria faberi (SETFA) [12], 100%; in experiment [13], 100%. The pest or weed control at 62.5 g/ha was 90% in the experiment on Lolium perenne (LOLPE) (62.5 g/ha), 100% with Avena fatua (AVEFA) (62.5 g/ha), 100% in [8] (setting [16]) and 90% in experiment [9] (setting [16]). Moreover, the plant injury at 62.5 g/ha in experiment [7] (62.5 g/ha) amounted to 80%. Besides, in [7] (250 g/ha), the plant injury at 250 g/ha was 90%. The pest or weed control at 31.25 g/ha in [8] (setting [14]) stood at 100%; in experiment [9] (setting [14]) it was 80%; in experiment [10] (31.25 g/ha), 30%; in experiment [11] (31.25 g/ha), 30%; in the experiment with Setaria faberi (SETFA) [12] (31.25 g/ha), 100%; in experiment [13] (31.25 g/ha), 100%.
Regarding `C#CCC1CC(=O)C(c2cc(-c3ccc(Cl)cc3)ccc2C)C1=O` (stereo not shown) [Compound A16], the pest or weed control at 250 g/ha turned out to be 90% in experiment [1]; 40% in experiment [2]; 90% in experiment [3]; 40% in experiment [4]; 90% with Setaria faberi (SETFA) [5]; 80% in experiment [6]. For the same compound, the pest or weed control at 250 g/ha in experiment [8] (setting [15]) was 100%; in experiment [9] (setting [15]), 90%; in experiment [10], 40%; in experiment [11], 60%; in the experiment with Setaria faberi (SETFA) [12], 90%; in [13], 60%. Further, the pest or weed control at 30 g/ha was found to be 40% in experiment [8] (setting [18]); 70% in [9] (setting [18]); 40% in experiment [10] (30 g/ha); 0% in experiment [11] (30 g/ha); 80% in the experiment with Setaria faberi (SETFA) [12] (30 g/ha); 80% in experiment [13] (30 g/ha).
Take `C#CCC1CC(=O)C(c2cc(-c3ccc(Cl)cn3)ccc2C)C1=O` (stereo not shown) [Compound A17]: the pest or weed control at 250 g/ha in experiment [1] was 70%; in [2], 10%; in [3], 70%; in experiment [4], 10%; in the experiment with Setaria faberi (SETFA) [5], 70%; in experiment [6], 60%. The pest or weed control at 250 g/ha is 80% in experiment [8] (setting [15]); 70% in [9] (setting [15]); 10% in experiment [10]; 50% in [11]; 80% in the experiment on Setaria faberi (SETFA) [12]; 60% in experiment [13].
As to `C#CCC1CC(=O)C(c2c(C)cc(-n3cc(Cl)cn3)cc2C)C1=O` (stereo not shown) [Compound A9], the pest or weed control at 250 g/ha in experiment [1] was determined as 100%; in [2] it was 40%; in experiment [3], 70%; in experiment [4], 70%; in the experiment on Setaria faberi (SETFA) [5], 100%; in experiment [6] it was 80%. Further, the pest or weed control at 250 g/ha turned out to be 100% in experiment [8] (setting [15]); 100% in [9] (setting [15]); 80% in [10]; 80% in [11]; 100% with Setaria faberi (SETFA) [12]; 100% in experiment [13].
